SMILES strings stand for the structures. Where a name gives a salt, the structure may show the parent alone.

The first assay relates to Toxoplasma gondii RH-2F tachyzoites. As to the kind of experiment: microbe, parasite or virus in culture. To be noted: 72 h, read-out: Parasite inhibition (%) mean.
Take `Cc1cc2c(F)c(Oc3ncnn4cc(OC[C@@H](C)O)c(C)c34)ccc2[nH]1` [Brivanib (BMS-540215)]: the inhibition of growth at 5 µM came out at 49.8%. In the case of `C#CCN[C@@H]1CCc2ccccc21` [Rasagiline mesylate], the inhibition of growth at 5 µM was 13.3%.

Staying with this assay, now noted: 72 h, read-out: Parasite inhibition (%) mean, preliminary screen of compound library, mean.
Turning to `OC[C@@H](O)[C@@H](O)[C@H](O)[C@@H](O)CO` [Sorbitol (Glucitol)], the inhibition of growth at 5 µM was -66.9%. Regarding `Nc1nc(=O)c2c([nH]1)NC[C@H](CNc1ccc(C(=O)N[C@@H](CCC(=O)O)C(=O)O)cc1)N2C=O` [Calcium levofolinate (Calcium Folinate)], the inhibition of growth at 5 µM stood at 0.1%.

Consider `CCNC(=O)CCC/C=C\C[C@@H]1[C@@H](/C=C/[C@@H](O)CCc2ccccc2)[C@H](O)C[C@@H]1O` [Bimatoprost], for which the inhibition of growth at 5 µM worked out at 9%. Turning to `CN(C)C1CCN(C(=O)c2ccc(NC(=O)Nc3ccc(-c4nc(N5CCOCC5)nc(N5CCOCC5)n4)cc3)cc2)CC1` [PF-05212384 (PKI-587)], the inhibition of growth at 5 µM was found to be 40.5%. `Cc1onc(-c2ccccc2Cl)c1C(=O)N[C@@H]1C(=O)N2[C@@H](C(=O)O)C(C)(C)S[C@@H]12` [Cloxacillin sodium (Cloxacap)]: the inhibition of growth at 5 µM amounted to 0.2%.

Take `C[C@@H](O)[C@H]1C(=O)N2C(C(=O)O)=C(S[C@@H]3CN[C@H](CNS(N)(=O)=O)C3)[C@H](C)[C@H]12` [Doripenem Hydrate]: the inhibition of growth at 5 µM is 0.8%. Regarding `N=C(N)c1ccc(OCCCCCOc2ccc(C(=N)N)cc2)cc1` [Pentamidine HCl], the inhibition of growth at 5 µM turned out to be 23.6%.

For `N#C[C@@H]1CCCN1C(=O)CNC12CC3CC(CC(O)(C3)C1)C2` [Vildagliptin (LAF-237)], the inhibition of growth at 5 µM is -11.7%.

On to `Cc1nc(NC(=O)N2CCC[C@H]2C(N)=O)sc1-c1csc(C(C)(C)C)n1` [A66], for which the inhibition of growth at 5 µM stood at 0.9%. Turning to `C[C@@H](O[C@H]1OCCN(Cc2nn(P(=O)(O)O)c(=O)[nH]2)[C@H]1c1ccc(F)cc1)c1cc(C(F)(F)F)cc(C(F)(F)F)c1` [Fosaprepitant dimeglumine], the inhibition of growth at 5 µM is -2.8%. In the case of `CNCC(O)c1ccc(O)cc1` (centres unmarked) [Synephrine HCl], the inhibition of growth at 5 µM turned out to be 3.7%. Same read-out and setting: to `C[N+]1(C)[C@@H]2C[C@@H](OC(=O)C(O)(c3cccs3)c3cccs3)C[C@H]1[C@@H]1O[C@@H]12` [Tiotropium Bromide hydrate] belongs -0.7%; to `CNC(=O)c1cccc(-c2ccc3c(N4CCOC[C@@H]4C)nc(N4CCOC[C@@H]4C)nc3n2)c1` [AZD2014], 45.5%.

Turning to `CN(Cc1ccc(C(C)(C)C)cc1)Cc1cccc2ccccc12` [Butenafine HCl], the inhibition of growth at 5 µM was 7.5%. The same measure, in the same setting: the result for `O=C(CCCCCCNC(=O)c1cnc(N(c2ccccc2)c2ccccc2)nc1)NO` [Rocilinostat (ACY-1215)] reads 2.9%. Regarding `CCCCc1oc2ccc(NS(C)(=O)=O)cc2c1C(=O)c1ccc(OCCCN(CCCC)CCCC)cc1` [Dronedarone HCl (Multaq)], the inhibition of growth at 5 µM amounted to 2.5%. Still for that read-out and setting: the result for `CC(C)c1onc(-c2c(Cl)cccc2Cl)c1COc1ccc(/C=C/c2cccc(C(=O)O)c2)c(Cl)c1` [GW4064] reads -7.7%; that for `Cc1cc(SCc2sc(-c3ccc(C(F)(F)F)c(F)c3)nc2C)ccc1OCC(=O)O` [GW0742], 23.4%; that for `COC(=O)C1=CCCN(C)C1` [Arecoline], -9.5%. Turning to `COc1cc(OC)c(OC)cc1C=O` [Asaraldehyde (Asaronaldehyde)], the inhibition of growth at 5 µM is 10.2%.

As for `CC(=O)NS(=O)(=O)c1ccc(N)cc1` [Sulfacetamide Sodium], the inhibition of growth at 5 µM is 0.9%.

Take `CNC(=O)c1cc(Oc2ccc(NC(=O)Nc3cc(C(C)(C)C)nn3-c3ccc4ncccc4c3)c(F)c2)ccn1` [DCC-2036 (Rebastinib)]: the inhibition of growth at 5 µM was 25.5%. In the case of `Cc1cc(C2CCCCC2)n(O)c(=O)c1` [Ciclopirox (Penlac)], the inhibition of growth at 5 µM was found to be 33.4%. In the case of `CCc1cc2c(cc1N1CCC(N3CCOCC3)CC1)C(C)(C)c1[nH]c3cc(C#N)ccc3c1C2=O` [CH5424802], the inhibition of growth at 5 µM was 46.1%.

Still in this assay, the particulars now being: 72 h, read-out: Parasite inhibition (%) mean, preliminary screen, mean.
Take `CC[C@H](CO)Nc1nc(NCc2ccccc2)c2ncn(C(C)C)c2n1` [Roscovitine (Seliciclib, CYC202)]: the inhibition of growth at 5 µM came to 12.2%.

With `O[C@H](CNC[C@@H](O)[C@H]1CCc2cc(F)ccc2O1)[C@@H]1CCc2cc(F)ccc2O1` [Nebivolol (Bystolic)], the inhibition of growth at 5 µM turned out to be 68.9%. Take `NC(=O)c1cn(Cc2c(F)cccc2F)nn1` [Rufinamide (Banzel)]: the inhibition of growth at 5 µM was determined as 1.7%.

With `Cc1ccc(S(=O)(=O)OCC(=O)Nc2ccc(C(=O)O)c(O)c2)cc1` [NSC 74859 (S3I-201)], the inhibition of growth at 5 µM was -25.8%.

Take `COc1ccc(S(=O)(=O)Nc2cccnc2Nc2ccc(O)cc2)cc1` [ABT-751]: the inhibition of growth at 5 µM is 22.7%. Consider `COc1ccc2cccc(CCNC(C)=O)c2c1` [Agomelatine], for which the inhibition of growth at 5 µM amounted to 64.2%. Turning to `Cc1nc(Nc2ncc(C(=O)Nc3c(C)cccc3Cl)s2)cc(N2CCN(CCO)CC2)n1` [Dasatinib (BMS-354825)], the inhibition of growth at 5 µM worked out at 10.5%. Take `CCCCCCOC(=O)/N=C(/N)c1ccc(NCc2nc3cc(C(=O)N(CCC(=O)OCC)c4ccccn4)ccc3n2C)cc1`: the inhibition of growth at 5 µM came to 1.2%. Consider `CCN(C)C(=O)Oc1cccc([C@H](C)N(C)C)c1` [Rivastigmine tartrate (Exelon)], for which the inhibition of growth at 5 µM amounted to 22.8%. `CCOC(=O)[C@H](CCc1ccccc1)N[C@H]1CCCN2CCC[C@H](C(=O)O)N2C1=O` [Cilazapril monohydrate (Inhibace)]: the inhibition of growth at 5 µM was 11.9%. For `COc1cc2nccc(Oc3ccc(NC(=O)Nc4cc(C)on4)c(Cl)c3)c2cc1OC` [Tivozanib (AV-951)], the inhibition of growth at 5 µM was -5.5%. For `O=C(O)Cn1nnc(-c2cc(N3CCC(Oc4cc(F)ccc4Br)CC3)no2)n1` [MK-8245], the inhibition of growth at 5 µM came out at 14.5%. Consider `C[C@H](Cn1cnc2c(N)ncnc21)OCP(=O)(O)O` [Tenofovir (Viread)], for which the inhibition of growth at 5 µM worked out at 0%. On the same count and under the same terms, to `c1cnc2cc3c(cc2n1)C1CNCC3C1` [Varenicline tartrate] belongs 0%. Turning to `CNCc1ccc(-c2[nH]c3cc(F)cc4c3c2CCNC4=O)cc1` [Rucaparib (AG-014699 , PF-01367338)], the inhibition of growth at 5 µM turned out to be 26.1%.

As to `CN(C)/N=N/c1[nH]cnc1C(N)=O` [Dacarbazine (DTIC-Dome)], the inhibition of growth at 5 µM amounted to 5.8%. On the same count and under the same terms, to `Cc1cn(-c2cc(NC(=O)c3ccc(C)c(Nc4nccc(-c5cccnc5)n4)c3)cc(C(F)(F)F)c2)cn1` [Nilotinib (AMN-107)] belongs 0.1%; to `O=C(NOC[C@H](O)CO)c1ccc(F)c(F)c1Nc1ccc(I)cc1F` [PD0325901], -6.9%; to `CCCS(=O)(=O)Nc1ccc(F)c(C(=O)c2c[nH]c3ncc(-c4ccc(Cl)cc4)cc23)c1F` [Vemurafenib (PLX4032)], 0.5%. On the same count and under the same terms, to `Cc1ccc2c(=O)c3cccc(CC(=O)O)c3oc2c1C` [DMXAA (ASA404)] belongs -33.6%; to `C[C@]1(c2nc3c(C(N)=O)cccc3[nH]2)CCCN1` [ABT-888 (Veliparib)], 50.5%.

The record behind these values is PMC7216583 (Parasites & Vectors, 2020).
